According to patent publication US9139557B2, “Carboxamide compounds and their use as calpain inhibitors” (Abbott GmbH & Co. KG, priority 2006, dated 2015):

Legend:
Assay type in all cases: biochemical
[1] = target: T1, cathepsin L (Homo sapiens, UniProt P07711); assay: Cathepsin L enzyme inhibition in vitro (kinetic fluorescence assay); conditions: Ki(cathepsin L)/Ki(calpain) ratio
T1 construct: cathepsin L—isolated from human liver; purchased Calbiochem 219402; host or cells: human liver (tissue isolate)
Protocol: (§1) Testing for blockade of the corresponding enzymic activities was carried out by means of kinetic fluorescence assays (excitation 390 nm, emission 460 nm).
(§2) Apparent Ki values were calculated from the experimentally determined IC50 values by the Cheng-Prussoff relation assuming a reversible competitive enzyme inhibition. The Km values of the substrates used under the assay conditions indicated above were: 90 μM (Z-Phe-Arg-AMC, cathepsin B), 10 μM (Z-Gly-Pro-Arg-AMC, cathepsin K), 2 μM (Z-Phe-Arg-AMC, cathepsin L), and 30 μM (Z-Val-Val-Arg-AMC, cathepsin S).
(§3) The indicated Ki values are averages of the inhibition constants calculated on the basis of 2 to 4 independent dose-effect plots.
(§4) • 1. Calpain I: • 20 nM calpain-I—isolated from human erythrocytes (Calbiochem #208713), 100 μM Suc-Leu-Tyr-AMC (Bachem #1-1355) as substrate in buffer with 62 mM imidazole, 0.3 mM CaCl2, 0.10% CHAPS, 0.05% BSA, 1 mM DTT at pH 7.3 and room temperature. • 2. Cathepsin B: • 0.25 nM cathepsin B—isolated from human liver (Calbiochem #219362), 100 μM Z-Phe-Arg-AMC (Bachem #1-1160) as substrate 50 mM MES, 2 mM EDTA, 0.05% Brij 35, 2.5 mM L-cysteine, pH 6.0, room temperature. • 3. Cathepsin K: • 3 nM cathepsin K—activated from recombinant human procathepsin K from E. coli (Calbiochem #342001), 10 μM Z-Gly-Pro-Arg-AMC (Biomol #P-142) as substrate in 50 mM MES, 2 mM EDTA, 0.05% Brij 35, 2.5 mM L-cysteine, pH 6.0, room temperature. • 4. Cathepsin L: • 1 nM cathepsin L—isolated from human liver (Calbiochem #219402), 2 μM Z-Phe-Arg-AMC (Bachem #1-1160) as substrate in 50 mM MES, 2 mM EDTA, 0.05% Brij 35, 2.5 mM L-cysteine, pH 6.0, room temperature. • 5. Cathepsin S: • 0.5 nM recombinant human cathepsin S from E. coli (Calbiochem #219343), 20 μM Z-Val-Val-Arg-AMC (Bachem #1-1540) as substrate in 50 mM MES, 2 mM EDTA, 0.05% Brij 35, 2.5 mM L-cysteine, pH 6.0, room temperature.

[2] = target: T2, cathepsin S (Homo sapiens, UniProt P25774); assay: Cathepsin S enzyme inhibition in vitro (kinetic fluorescence assay); conditions: Ki(cathepsin S)/Ki(calpain) ratio
T2 construct: purchased Calbiochem 219343; host or cells: E. coli
Protocol: as §1, §2, §3, §4

[3] = target: T3, cathepsin B (Homo sapiens, UniProt P07858); assay: Cathepsin B enzyme inhibition in vitro (kinetic fluorescence assay); conditions: Ki(cathepsin B)/Ki(calpain) ratio
T3 construct: cathepsin B—isolated from human liver; purchased Calbiochem 219362; host or cells: human liver (tissue isolate)
Protocol: as §1, §2, §3, §4

T2 sequence (P25774 115-331): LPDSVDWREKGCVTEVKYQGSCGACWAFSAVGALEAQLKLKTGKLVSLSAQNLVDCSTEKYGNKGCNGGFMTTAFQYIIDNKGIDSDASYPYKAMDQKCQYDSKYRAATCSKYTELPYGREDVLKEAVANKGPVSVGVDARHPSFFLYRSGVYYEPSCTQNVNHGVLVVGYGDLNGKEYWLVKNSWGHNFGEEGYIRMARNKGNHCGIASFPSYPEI
T1 sequence (P07711 114-333): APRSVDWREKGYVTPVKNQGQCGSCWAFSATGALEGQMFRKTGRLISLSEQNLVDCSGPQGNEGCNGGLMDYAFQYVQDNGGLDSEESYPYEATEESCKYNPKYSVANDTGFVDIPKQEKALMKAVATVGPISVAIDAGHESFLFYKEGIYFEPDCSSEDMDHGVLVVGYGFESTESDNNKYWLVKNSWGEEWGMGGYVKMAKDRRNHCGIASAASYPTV

Row | SMILES | Sel cat. L [1] | Sel cat. S [2] | Sel cat. B [3]
1 | CCCCC(NC(=O)c1cccnc1-n1cnc(-c2ccc(N3CCOCC3)cc2)c1)C(=O)C(N)=O.Cl (stereo not shown) [Example 15, N-{1-[Amino(oxo)acetyl]pentyl}-2-[4-(4-morpholin-4-ylphenyl)-1H-imidazol-1-yl]nicotinamide hydrochloride] | ++ (++ means a Ki(cathepsin L)/Ki(calpain) ratio of ≧50) | + (+ means 50≦Ki(cathepsin S)/Ki(calpain)<100) | –
2 | Cl.NC(=O)C(=O)C(Cc1ccccc1)NC(=O)c1cccnc1-n1cnc(-c2ccc(C(F)(F)F)cc2)c1 (stereo not shown) [Example 18, N-(3-Amino-1-benzyl-2,3-dioxopropyl)-2-{4-[4-(trifluoromethyl)phenyl]-1H-imidazol-1-yl}nicotinamide hydrochloride] | + (+ means 30≦Ki(cathepsin L)/Ki(calpain)<50) | ++ (++ means a Ki(cathepsin S)/Ki(calpain) ratio of ≧100) | –
3 | CCCCC(NC(=O)c1cccnc1-n1ccc(-c2ccc(N3CCOCC3)cc2)n1)C(=O)C(N)=O (stereo not shown) [Example 33, N-{1-[Amino(oxo)acetyl]pentyl}-2-[3-(4-morpholin-4-ylphenyl)-1H-pyrazol-1-yl]nicotinamide] | – | + (+ means 50≦Ki(cathepsin S)/Ki(calpain)<100) | + (+ means 10≦Ki(cathepsin B)/Ki(calpain)<30)
4 | NC(=O)C(=O)C(Cc1ccccc1)NC(=O)c1cccnc1-n1cc(COc2ccccc2)c(-c2ccc(F)cc2)n1 (stereo not shown) [Example 179, N-[3-Amino-2,3-dioxo-1-(phenylmethyl)propyl]-2-{3-(4-fluorophenyl)-4-[(phenyloxy)methyl]-1H-pyrazol-1-yl}pyridine-3-carboxamide] | + (+ means 30≦Ki(cathepsin L)/Ki(calpain)<50) | ++ (++ means a Ki(cathepsin S)/Ki(calpain) ratio of ≧100) | –
5 | CCCCC(NC(=O)c1cccnc1-n1ccc(-c2cccc(N3CCOCC3)c2)n1)C(=O)C(N)=O (stereo not shown) [Example 59, N-{1-[Amino(oxo)acetyl]pentyl}-2-[3-(3-morpholin-4-ylphenyl)-1H-pyrazol-1-yl]nicotinamide] | ++ (++ means a Ki(cathepsin L)/Ki(calpain) ratio of ≧50) | + (+ means 50≦Ki(cathepsin S)/Ki(calpain)<100) | –
6 | NC(=O)C(=O)C(Cc1ccc(Br)cc1)NC(=O)c1cccnc1-n1ccc(-c2ccccc2)n1 (stereo not shown) [Example 122, N-{3-Amino-1-[(4-bromophenyl)methyl]-2,3-dioxopropyl}-2-(3-phenyl-1H-pyrazol-1-yl)pyridine-3-carboxamide] | ++ (++ means a Ki(cathepsin L)/Ki(calpain) ratio of ≧50) | ++ (++ means a Ki(cathepsin S)/Ki(calpain) ratio of ≧100) | ++ (++ means a Ki(cathepsin B)/Ki(calpain) ratio of ≧30)
7 | CCCCC(NC(=O)c1cccnc1-n1cnc(-c2ccc(C(F)(F)F)cc2)c1)C(=O)C(N)=O.Cl (stereo not shown) [Example 17, N-{1-[Amino(oxo)acetyl]pentyl}-2-{4-[4-(trifluoromethyl)phenyl]-1H-imidazol-1-yl}nicotinamide hydrochloride] | ++ (++ means a Ki(cathepsin L)/Ki(calpain) ratio of ≧50) | + (+ means 50≦Ki(cathepsin S)/Ki(calpain)<100) | –
8 | N#Cc1ccc(-c2ccn(-c3ncccc3C(=O)NC(Cc3ccccc3)C(=O)C(N)=O)n2)cc1 (stereo not shown) [Example 62, N-(3-Amino-1-benzyl-2,3-dioxopropyl)-2-[3-(4-cyanophenyl)-1H-pyrazol-1-yl]nicotinamide] | ++ (++ means a Ki(cathepsin L)/Ki(calpain) ratio of ≧50) | ++ (++ means a Ki(cathepsin S)/Ki(calpain) ratio of ≧100) | –
9 | Cc1cc(-c2ccccc2)nn1-c1ncccc1C(=O)NC(Cc1ccccc1)C(=O)C(N)=O (stereo not shown) [Example 61, N-(3-Amino-1-benzyl-2,3-dioxopropyl)-2-(5-methyl-3-phenyl-1H-pyrazol-1-yl)nicotinamide] | – | ++ (++ means a Ki(cathepsin S)/Ki(calpain) ratio of ≧100) | + (+ means 10≦Ki(cathepsin B)/Ki(calpain)<30)
10 | CC(C)CC(NC(=O)c1cc(Cl)cnc1-n1ccc(-c2ccccc2)n1)C(=O)C(N)=O (stereo not shown) [Example 32, N-{1-[Amino(oxo)acetyl]-3-methylbutyl}-5-chloro-2-(3-phenyl-1H-pyrazol-1-yl)nicotinamide] | – | – | + (+ means 10≦Ki(cathepsin B)/Ki(calpain)<30)
11 | NC(=O)C(=O)C(Cc1ccccc1)NC(=O)c1cccnc1-n1cc2c(n1)-c1ccccc1OCC2 (stereo not shown) [Example 141, N-[3-Amino-2,3-dioxo-1-(phenylmethyl)propyl]-2-(4,5-dihydro-2H-Mbenzoxepino[5,4-c]pyrazol-2-yl)pyridine-3-carboxamide] | ++ (++ means a Ki(cathepsin L)/Ki(calpain) ratio of ≧50) | ++ (++ means a Ki(cathepsin S)/Ki(calpain) ratio of ≧100) | –
12 | COc1ccc(-c2cn(-c3ncccc3C(=O)NC(Cc3ccccc3)C(=O)C(N)=O)cn2)cc1 (stereo not shown) [Example 13, N-(3-Amino-1-benzyl-2,3-dioxopropyl)-2-[4-(4-methoxyphenyl)-1H-imidazol-1-yl]nicotinamide] | ++ (++ means a Ki(cathepsin L)/Ki(calpain) ratio of ≧50) | + (+ means 50≦Ki(cathepsin S)/Ki(calpain)<100) | –
13 | CCCCC(NC(=O)c1cc(Cl)cnc1-n1ccc(-c2ccccc2)n1)C(=O)C(N)=O (stereo not shown) [Example 28, N-{1-[Amino(oxo)acetyl]pentyl}-5-chloro-2-(3-phenyl-1H-pyrazol-1-yl)nicotinamide] | – | – | + (+ means 10≦Ki(cathepsin B)/Ki(calpain)<30)
14 | CS(=O)(=O)NCc1cn(-c2ncccc2C(=O)NC(Cc2ccccc2)C(=O)C(N)=O)nc1-c1ccc(F)cc1 (stereo not shown) [Example 187, N-[3-Amino-2,3-dioxo-1-(phenylmethyl)propyl]-2-[3-(4-fluorophenyl)-4-{[(methylsulfonyl)amino]methyl}-1H-pyrazol-1-yl]pyridine-3-carboxamide] | + (+ means 30≦Ki(cathepsin L)/Ki(calpain)<50) | ++ (++ means a Ki(cathepsin S)/Ki(calpain) ratio of ≧100) | –
15 | NC(=O)C(=O)C(Cc1ccccc1)NC(=O)c1cccnc1-n1cc2ccccc2n1 (stereo not shown) [Example 78, N-(3-Amino-1-benzyl-2,3-dioxopropyl)-2-(2H-indazol-2-yl)nicotinamide] | ++ (++ means a Ki(cathepsin L)/Ki(calpain) ratio of ≧50) | + (+ means 50≦Ki(cathepsin S)/Ki(calpain)<100) | –
16 | NC(=O)C(=O)C(Cc1ccccc1)NC(=O)c1cccnc1-n1ccc(-c2ccc(N3CCCCC3)cc2)n1 (stereo not shown) [Example 64, N-(3-Amino-1-benzyl-2,3-dioxopropyl)-2-[3-(4-piperidin-1-ylphenyl)-1H-pyrazol-1-yl]nicotinamide] | – | ++ (++ means a Ki(cathepsin S)/Ki(calpain) ratio of ≧100) | + (+ means 10≦Ki(cathepsin B)/Ki(calpain)<30)
17 | NC(=O)C(=O)C(Cc1ccccc1)NC(=O)c1cccnc1-n1cnc(-c2ccc(Cl)cc2)c1 (stereo not shown) [Example 9, N-(3-Amino-1-benzyl-2,3-dioxopropyl)-2-[4-(4-chlorophenyl)-1H-imidazol-1-yl]nicotinamide] | + (+ means 30≦Ki(cathepsin L)/Ki(calpain)<50) | ++ (++ means a Ki(cathepsin S)/Ki(calpain) ratio of ≧100) | –
18 | NC(=O)C(=O)C(Cc1ccccc1)NC(=O)c1cccnc1-n1ccc(-c2ccc(Cl)cc2)n1 (stereo not shown) [Example 39, N-(3-Amino-1-benzyl-2,3-dioxopropyl)-2-[3-(4-chlorophenyl)-1H-pyrazol-1-yl]nicotinamide] | ++ (++ means a Ki(cathepsin L)/Ki(calpain) ratio of ≧50) | ++ (++ means a Ki(cathepsin S)/Ki(calpain) ratio of ≧100) | –
19 | CCCCC(NC(=O)c1cccnc1-n1ccc(-c2ccc(OC)cc2)n1)C(=O)C(N)=O (stereo not shown) [Example 49, N-{1-[Amino(oxo)acetyl]pentyl}-2-[3-(4-methoxyphenyl)-1H-pyrazol-1-yl]nicotinamide] | + (+ means 30≦Ki(cathepsin L)/Ki(calpain)<50) | ++ (++ means a Ki(cathepsin S)/Ki(calpain) ratio of ≧100) | –
